Source: patent US20080045494A1, “Pyridine Analogues VI” (ASTRAZENECA AB, priority 2006, published 2008)
pIC50: −log10 of the molar value.

Molecular target: T1, P2Y12 receptor (Homo sapiens, UniProt Q9H244)
T1 construct: expressed in transfected cells; host or cells: CHO cells (membranes)
Test: Functional inhibition of 2-Me-S-ADP induced P2Y12 signalling (35S-GTPγS, membranes from P2Y12 transfected CHO-cells)
Type: biochemical
Details: EC80 concentration of agonist 2-methyl-thio-adenosine diphosphate; 30° C., 45 min
Description: Functional inhibition of the P2Y12 receptor can be measured by in vitro assays using cell membranes from P2Y12 transfected CHO-cells, the methodology is indicated below.
Functional inhibition of 2-Me—S-ADP induced P2Y12 signalling: 5 μg of membranes were diluted in 200 μl of 200 mM NaCl, 1 mM MgCl2, 50 mM HEPES (pH 7.4), 0.01% BSA, 30 μg/ml saponin and 10 μM GDP. To this was added an EC80 concentration of agonist (2-methyl-thio-adenosine diphosphate), the required concentration of test compound and 0.1 μCi ^35S-GTPγS. The reaction was allowed to proceed at 30° C. for 45 min. Samples were then transferred on to GF/B filters using a cell harvester and washed with wash buffer (50 mM Tris (pH 7.4), 5 mM MgCl2, 50 mM NaCl). Filters were then covered with scintillant and counted for the amount of ^35S-GTPγS retained by the filter. Maximum activity was that determined in the presence of the agonist and minimum activity in the absence of the agonist following subtraction of the value determined for non-specific activity. The effect of compounds at various concentrations was plotted according to the equation: […]
y=A+((B−A)/(1+((C/x)̂D)))
A is the bottom plateau of the curve i.e. the final minimum y value
B is the top of the plateau of the curve i.e. the final maximum y value
C is the x value at the middle of the curve. This represents the log EC50 value when A+B=100 […]

T1 sequence (Q9H244 whole entry): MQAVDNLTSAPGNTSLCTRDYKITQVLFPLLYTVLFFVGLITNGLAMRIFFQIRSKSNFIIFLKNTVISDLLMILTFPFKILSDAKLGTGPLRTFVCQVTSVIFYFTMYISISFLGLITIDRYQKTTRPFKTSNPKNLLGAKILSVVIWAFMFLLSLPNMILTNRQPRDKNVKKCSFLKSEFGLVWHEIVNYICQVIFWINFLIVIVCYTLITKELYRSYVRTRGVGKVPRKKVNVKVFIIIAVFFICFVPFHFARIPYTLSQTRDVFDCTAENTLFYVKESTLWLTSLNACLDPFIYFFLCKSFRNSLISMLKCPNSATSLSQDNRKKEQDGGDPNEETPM

Row | Compound | pIC50
1 | Ethyl 6-{[3-({[(5-chloro-2-thienyl)sulfonyl]amino}carbonyl)cyclopentyl]amino}-5-cyano-1-(trifluoromethyl)nicotinate [Example 3] | 6.09
2 | CCOC(=O)c1cc(C#N)c(NCC(=O)NS(=O)(=O)CCc2ccccc2)nc1C(F)(F)F [Example 6, Ethyl 5-cyano-6-[(2-oxo-2-{[(2-phenylethyl)sulfonyl]amino}ethyl)amino]-2-(trifluoromethyl)nicotinate] | 6.62
